What was measured:
Details in all cases: treatment: drug alone; 5 days
TK-10 [1] = assay: minimum viability across doses, drug alone, relative to DMSO (fraction); higher = less growth inhibition
Method: (§1)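 Primary HTS: 8 RCC cell lines treated with 8 doses (up to 10 uM) of each library drug alone for 5 days; viability read by CellTiter-Glo and normalised to DMSO. GI50 was fitted with XLfit (4-parameter), AUC is the area under the dose-response curve, and minimum viability is the lowest fraction of DMSO viability across doses.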

SN12C [2] = assay: as above
Method: as §1

769-P [3] = assay: as above
Method: as §1

UO-31 [4] = assay: as above
Method: as §1

A498 [5] = assay: as above
Method: as §1

786-O [6] = assay: as above
Method: as §1

ACHN [7] = assay: as above
Method: as §1

CAKI-1 [8] = assay: as above
Method: as §1

TK-10 [9] = assay: AUC of dose-response viability curve, drug alone (arbitrary (AUC of normalised viability)); higher = less growth inhibition
Method: as §1

SN12C [10] = assay: as above
Method: as §1

769-P [11] = assay: as above
Method: as §1

UO-31 [12] = assay: as above
Method: as §1

A498 [13] = assay: as above
Method: as §1

786-O [14] = assay: as above
Method: as §1

ACHN [15] = assay: as above
Method: as §1

CAKI-1 [16] = assay: as above
Method: as §1

TK-10 [17] = assay: GI50, drug alone; higher = less potent
Method: as §1

SN12C [18] = assay: GI50, drug alone; higher = less potent
Method: as §1

769-P [19] = assay: GI50, drug alone; higher = less potent
Method: as §1

UO-31 [20] = assay: GI50, drug alone; higher = less potent
Method: as §1

A498 [21] = assay: GI50, drug alone; higher = less potent
Method: as §1

786-O [22] = assay: GI50, drug alone; higher = less potent
Method: as §1

ACHN [23] = assay: GI50, drug alone; higher = less potent
Method: as §1

CAKI-1 [24] = assay: GI50, drug alone; higher = less potent
Method: as §1

| Compound | GI50, drug alone (786-O [22]) | GI50, drug alone (ACHN [23]) | minimum viability across doses (TK-10 [1]) | minimum viability across doses (SN12C [2]) | minimum viability across doses (769-P [3]) | minimum viability across doses (UO-31 [4]) | minimum viability across doses (A498 [5]) | minimum viability across doses (786-O [6]) | minimum viability across doses (ACHN [7]) | minimum viability across doses (CAKI-1 [8]) | AUC of dose-response viability curve (TK-10 [9]) | AUC of dose-response viability curve (SN12C [10]) | AUC of dose-response viability curve (769-P [11]) | AUC of dose-response viability curve (UO-31 [12]) | AUC of dose-response viability curve (A498 [13]) | AUC of dose-response viability curve (786-O [14]) | AUC of dose-response viability curve (ACHN [15]) | AUC of dose-response viability curve (CAKI-1 [16]) | GI50, drug alone (TK-10 [17]) | GI50, drug alone (SN12C [18]) | GI50, drug alone (769-P [19]) | GI50, drug alone (UO-31 [20]) | GI50, drug alone (A498 [21]) | GI50, drug alone (CAKI-1 [24]) |
| --- | --- | --- | --- | --- | --- | --- | --- | --- | --- | --- | --- | --- | --- | --- | --- | --- | --- | --- | --- | --- | --- | --- | --- | --- |
| Cc1cc2c(F)c(Oc3ncnn4cc(OC[C@@H](C)O)c(C)c34)ccc2[nH]1 | > 10000 nM | > 10000 nM | 0.733 | 0.909 | 0.901 | 0.457 | 1.09 | 0.668 | 0.628 | 0.427 | 3.23 | 3.28 | 3.39 | 4.46 | 4.21 | 3.09 | 3.04 | 3.4 | > 10000 nM | > 10000 nM | > 10000 nM | 9550 nM | > 10000 nM | 8980 nM |
| COc1ccc(-c2ccc3c(N4CCOC[C@@H]4C)nc(N4CCOC[C@@H]4C)nc3n2)cc1CO [AZD8055] | 9.59 nM | 41.5 nM | 0.0959 | 0.163 | 0.109 | 0.00497 | 0.229 | 0.00631 | 0.0903 | 0.0607 | 1.48 | 1.62 | 1.76 | 1.29 | 2.4 | 0.809 | 1.25 | 1.48 | 85.1 nM | 110 nM | 171 nM | 69.1 nM | 370 nM | 119 nM |
| CNC(=O)c1ccc(C)c(-n2c(C)cc(OCc3ccc(F)cc3F)c(Br)c2=O)c1 | < 3 nM | 4720 nM | 0.596 | 0.738 | 0.765 | 0.835 | 1.12 | 0.437 | 0.464 | 0.705 | 2.51 | 2.94 | 3.15 | 3.74 | 4.54 | 1.88 | 2.53 | 3.1 | > 10000 nM | > 10000 nM | > 10000 nM | > 10000 nM | > 10000 nM | > 10000 nM |
| CC(=O)NCC(=O)N1[C@H]2CC[C@H]1c1cc(Nc3ncc(C(F)(F)F)c(NC4CCC4)n3)ccc12 | 15.1 nM | 80.6 nM | 0.128 | 0.0115 | 0.0288 | 0.0196 | 0.0256 | 0.0093 | 0.0112 | 0.123 | 2.18 | 2.12 | 2.09 | 2.54 | 3.32 | 0.907 | 1.5 | 1.81 | 725 nM | 557 nM | 375 nM | 2640 nM | 4770 nM | 173 nM |
| CNC(=O)c1ccc(-c2cnc3ncc(Cc4ccc5ncccc5c4)n3n2)cc1F | > 10000 nM | > 10000 nM | 0.843 | 0.913 | 0.916 | 1.21 | 0.984 | 0.652 | 0.842 | 0.802 | 3.14 | 3.41 | 3.5 | 5.21 | 4.54 | 2.88 | 3.21 | 3.25 | > 10000 nM | > 10000 nM | > 10000 nM | > 10000 nM | > 10000 nM | > 10000 nM |
| C[C@@H](N)[C@H]1CC[C@H](C(=O)Nc2ccncc2)CC1.Cl.Cl | > 10000 nM | > 10000 nM | 0.887 | 0.909 | 0.895 | 0.96 | 0.87 | 0.802 | 0.908 | 0.859 | 3.46 | 3.55 | 3.37 | 4.59 | 3.58 | 3.36 | 3.73 | 3.45 | > 10000 nM | > 10000 nM | > 10000 nM | > 10000 nM | > 10000 nM | > 10000 nM |

The next lines start with results.

| GI50, drug alone (786-O [22]) | GI50, drug alone (ACHN [23]) | Compound | minimum viability across doses (TK-10 [1]) | minimum viability across doses (SN12C [2]) | minimum viability across doses (769-P [3]) | minimum viability across doses (UO-31 [4]) | minimum viability across doses (A498 [5]) | minimum viability across doses (786-O [6]) | minimum viability across doses (ACHN [7]) | minimum viability across doses (CAKI-1 [8]) | AUC of dose-response viability curve (TK-10 [9]) | AUC of dose-response viability curve (SN12C [10]) | AUC of dose-response viability curve (769-P [11]) | AUC of dose-response viability curve (UO-31 [12]) | AUC of dose-response viability curve (A498 [13]) | AUC of dose-response viability curve (786-O [14]) | AUC of dose-response viability curve (ACHN [15]) | AUC of dose-response viability curve (CAKI-1 [16]) | GI50, drug alone (TK-10 [17]) | GI50, drug alone (SN12C [18]) | GI50, drug alone (769-P [19]) | GI50, drug alone (UO-31 [20]) | GI50, drug alone (A498 [21]) | GI50, drug alone (CAKI-1 [24]) |
| --- | --- | --- | --- | --- | --- | --- | --- | --- | --- | --- | --- | --- | --- | --- | --- | --- | --- | --- | --- | --- | --- | --- | --- | --- |
| 1110 nM | 1870 nM | Nc1ccc(C(=O)Nc2cccc(-c3nc(N4CCOCC4)c4oc5ncccc5c4n3)c2)cn1 | 0.11 | 0.46 | 0.0884 | 0.0163 | 0.527 | 0.00412 | 0.207 | 0.153 | 2.64 | 3 | 3.04 | 5.57 | 4.39 | 2.4 | 2.63 | 2.63 | 1700 nM | 8230 nM | 3140 nM | 8080 nM | > 10000 nM | 1190 nM |
| 6950 nM | 510 nM | CN1CCN(c2ccc3nc(-c4c(N)c5c(F)cccc5[nH]c4=O)[nH]c3c2)CC1 [Dovitinib (TKI-258)] | 0.252 | 0.079 | 0.0627 | 0.207 | 0.351 | 0.395 | 0.116 | 0.13 | 2.5 | 2.36 | 2.64 | 3.69 | 3.15 | 3.27 | 2.18 | 2.18 | 2260 nM | 956 nM | 2560 nM | 3540 nM | 6940 nM | 451 nM |
| 2600 nM | 969 nM | COc1cc2c(Oc3ccc4[nH]c(C)cc4c3F)ncnc2cc1OCCCN1CCCC1 [Cediranib (AZD2171)] | 0.0469 | 0.248 | 0.293 | 0.0213 | 0.17 | 0.129 | 0.0987 | 0.0807 | 2.62 | 2.55 | 2.94 | 2.76 | 3.15 | 2.5 | 2.5 | 2.35 | 2290 nM | 2870 nM | 5430 nM | 2980 nM | 5360 nM | 740 nM |

From the supplement of paper PMC8149375
